Data: patent US10611740B2, “Aryl dihydro-2H-benzo[b][1,4]oxazine sulfonamide and related compounds for use as agonists of RORγ and the treatment of disease” (Lycera Corporation, priority 2015, dated 2020)

Biological target: T1, RORγ-LBD (Homo sapiens, UniProt P51449)
T1 construct: made in house; host or cells: SF9 cells (baculovirus)
T1 sequence (P51449 269-508 limits assumed): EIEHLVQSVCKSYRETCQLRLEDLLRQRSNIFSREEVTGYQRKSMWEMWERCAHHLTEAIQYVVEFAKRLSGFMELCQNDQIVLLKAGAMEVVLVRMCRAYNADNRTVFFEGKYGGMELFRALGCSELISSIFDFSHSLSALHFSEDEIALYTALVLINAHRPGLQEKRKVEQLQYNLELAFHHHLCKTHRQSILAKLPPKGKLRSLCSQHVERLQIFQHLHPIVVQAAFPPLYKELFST
Experiment: RORγ-Ligand Binding Domain (LBD) TR-FRET Assay;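 for TR-FRET Assay Max Response: 665/615 nm ratio relative to signal without ursolic acid or compound set at 100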
Type: biochemical
Experimental: Assay procedures and results are described below.
HIS-tagged RORγ-LBD protein was expressed in SF9 cells using a baculovirus expression system. The lysate was diluted in assay buffer (50 mM Tris pH 7.0, 50 mM KCl, 1 mM EDTA, 0.1 mM DTT, 0.01% BSA) to obtain RORγ-LBD final concentration of ˜3 nM in a 384-well assay plate (need to titrate for each batch of protein).
A stock of biotinylated-LXXLL peptide from coactivator SRC1 (Biotin-[…]) was prepared in assay buffer and added to each well (200 nM final concentration). […] RORγ antagonist ursolic acid was also included at a final concentration of 2 μM. Compounds were diluted in DMSO and further diluted in assay buffer with a final DMSO concentration at 1%.

SMILES | EC50 | TR-FRET Assay Max Response
O=C(O)CC[C@H]1CN(S(=O)(=O)c2cccc(C(F)(F)F)c2)c2cc(-c3ccc(F)cc3F)ccc2O1 [Compound 2D, (S)-3-(6-(2,4-difluorophenyl)-4-((3-(trifluoromethyl)phenyl)-sulfonyl)-3,4-dihydro-2H-benzo[b][1,4]oxazin-2-yl)propanoic acid] | < 500 nM | ** (The symbol “**” indicates a value in the range of greater than 90 to 150)
O=C(O)CC[C@H]1CN(S(=O)(=O)c2cccc(C(F)(F)F)c2)c2cc(-c3ccc(Cl)cc3)ccc2O1 [Compound 2B, (S)-3-(6-(4-chlorophenyl)-4-((3-(trifluoromethyl)phenyl)-sulfonyl)-3,4-dihydro-2H-benzo[b][1,4]oxazin-2-yl)propanoic acid] | < 500 nM | ** (The symbol “**” indicates a value in the range of greater than 90 to 150)
O=C(O)CNC(=O)CC[C@H]1CN(S(=O)(=O)c2cccc(C(F)(F)F)c2)c2cc(-c3cccc(F)c3F)ccc2O1 [Compound 23O, (S)-(3-(6-(2,3-difluorophenyl)-4-((3-(trifluoromethyl)-phenyl)sulfonyl)-3,4-dihydro-2H-benzo[b][1,4]oxazin-2-yl)propanoyl)glycine] | < 500 nM | **** (The symbol “****” indicates a value greater than 200)
O=C(O)CC[C@@H]1CN(S(=O)(=O)c2cccc(C(F)(F)F)c2)c2cc(-c3cc(F)ccc3F)ccc2O1 [Compound 2BP, (R)-3-(6-(2,5-difluorophenyl)-4-((3-(trifluoromethyl)phenyl)-sulfonyl)-3,4-dihydro-2H-benzo[b][1,4]oxazin-2-yl)propanoic acid] | < 500 nM | *** (The symbol “***” indicates a value in the range of greater than 150 to 200)
O=C(O)[C@H]1C[C@@H]([C@H]2CN(S(=O)(=O)c3cccc(C(F)(F)F)c3)c3cc(-c4cccc(C(F)(F)F)n4)ccc3O2)C1 [Compound 71, (1R,3s)-3-((S)-4-((3-(trifluoromethyl)phenyl)sulfonyl)-6-(6-(trifluoromethyl)pyridin-2-yl)-3,4-dihydro-2H-benzo[b][1,4]oxazin-2-yl)cyclobutane-1-carboxylic acid] | < 500 nM | *** (The symbol “***” indicates a value in the range of greater than 150 to 200)

Second part, led by results:

EC50 | SMILES | TR-FRET Assay Max Response
< 500 nM | CC(C)(C(=O)NC[C@H]1CN(S(=O)(=O)c2cccc(C(F)(F)F)c2)c2cc(-c3cc(F)cc(OC(F)F)c3)ccc2O1)C(F)(F)F [Compound 30CY, (S)-N-((6-(3-(difluoromethoxy)-5-fluorophenyl)-4-((3-(trifluoro-methyl)phenyl)sulfonyl)-3,4-dihydro-2H-benzo[b][1,4]-oxazin-2-yl)methyl)-3,3,3-trifluoro-2,2-dimethyl-propanamide] | ** (The symbol “**” indicates a value in the range of greater than 90 to 150)
< 500 nM | O=C(NC[C@H]1CN(S(=O)(=O)c2cccc(C(F)(F)F)c2)c2cc(-c3cccc(F)c3Cl)ccc2O1)C1(F)CC1 [Compound 30BM, (S)-N-((6-(2-chloro-3-fluoro-phenyl)-4-((3-(trifluoromethyl)-phenyl)sulfonyl)-3,4-dihydro-2H-benzo[b][1,4]oxazin-2-yl)methyl)-1-fluorocyclo-propane-1-carboxamide] | *** (The symbol “***” indicates a value in the range of greater than 150 to 200)
< 500 nM | C[C@H](C[C@H]1CN(S(=O)(=O)c2cccc(C(F)(F)F)c2)c2cc(-c3cc(F)cc(F)c3Cl)ccc2O1)C(=O)O [Compound 46M, (R)-3-((S)-6-(2-chloro-3,5-difluorophenyl)-4-((3-(trifluoromethyl)phenyl)sulfonyl)-3,4-dihydro-2H-benzo[b][1,4]oxazin-2-yl)-2-methylpropanoic acid] | *** (The symbol “***” indicates a value in the range of greater than 150 to 200)
< 500 nM | CC(C)(C[C@H]1CN(S(=O)(=O)c2cccc(C(F)(F)F)c2)c2cc(-c3cc(F)cc(F)c3Cl)ccc2O1)C(=O)O [Compound 32U, (S)-3-(6-(2-chloro-3,5-difluoro-phenyl)-4-((3-(trifluoromethyl)-phenyl)sulfonyl)-3,4-dihydro-2H-benzo[b][1,4]oxazin-2-yl)-2,2-dimethylpropanoic acid] | *** (The symbol “***” indicates a value in the range of greater than 150 to 200)
< 500 nM | C[C@H](C[C@H]1CN(S(=O)(=O)c2cccc(C(F)(F)F)c2)c2cc(-c3cccc(C(F)(F)F)n3)ccc2O1)C(=O)O [Compound 46U, (R)-2-methyl-3-((S)-4-((3-(trifluoromethyl)phenyl)sulfonyl)-6-(6-(trifluoromethyl)pyridin-2-yl)-3,4-dihydro-2H-benzo[b][1,4]-oxazin-2-yl)propanoic acid] | *** (The symbol “***” indicates a value in the range of greater than 150 to 200)
< 500 nM | O=C(O)C1(C[C@@H]2CN(S(=O)(=O)c3cccc(C(F)(F)F)c3)c3cc(-c4cc(F)cc(F)c4)ccc3O2)CCC1 [Compound 32AP, (R)-1-((6-(3,5-difluorophenyl)-4-((3-(trifluoromethyl)phenyl)-sulfonyl)-3,4-dihydro-2H-benzo[b][1,4]oxazin-2-yl)methyl)cyclobutane-1-carboxylic acid] | ** (The symbol “**” indicates a value in the range of greater than 90 to 150)
< 500 nM | O=C(O)[C@H]1C[C@@H]([C@H]2CN(S(=O)(=O)c3cccc(C(F)(F)F)c3)c3cc(-c4cc(F)ccc4F)ccc3O2)C1 [Compound 60H, (1R,3s)-3-((S)-6-(2,5-difluoro-phenyl)-4-((3-(trifluoromethyl)-phenyl)sulfonyl)-3,4-dihydro-2H-benzo[b][1,4]oxazin-2-yl)cyclobutane-1-carboxylic acid] | ** (The symbol “**” indicates a value in the range of greater than 90 to 150)
< 500 nM | Cn1cc(C(=O)NC[C@H]2CN(S(=O)(=O)c3cccc(C(F)(F)F)c3)c3cc(-c4cc(F)cc(OC(F)F)c4)ccc3O2)c(C(F)(F)F)n1 [Compound 30CZ, (S)-N-((6-(3-(difluoromethoxy)-5-fluorophenyl)-4-((3-(trifluoro-methyl)phenyl)sulfonyl)-3,4-dihydro-2H-benzo[b][1,4]-oxazin-2-yl)methyl)-1-methyl-3-(trifluoromethyl)-1H-pyrazole-4-carboxamide] | *** (The symbol “***” indicates a value in the range of greater than 150 to 200)
< 500 nM | O=C(O)[C@H]1C[C@H]([C@H]2CN(S(=O)(=O)c3cccc(C(F)(F)F)c3)c3cc(-c4cc(F)cc(OC(F)F)c4)ccc3O2)C1 [Compound 60K, (1S,3r)-3-((S)-6-(3-(difluoro-methoxy)-5-fluorophenyl)-4-((3-(trifluoromethyl)phenyl)-sulfonyl)-3,4-dihydro-2H-benzo[b][1,4]oxazin-2-yl)cyclobutane-1-carboxylic acid] | ** (The symbol “**” indicates a value in the range of greater than 90 to 150)
